Assay results as given in ChEMBL document CHEMBL4393717, “Development of novel human lactate dehydrogenase A inhibitors: High-throughput screening, synthesis, and biological evaluations” (Eur J Med Chem, 2019).
Activity calls are given as the source filed them. The calls are words filed in the database; no cut-off is given here.

How the values were obtained:
MIA PaCa-2 [1] = assay: Induction of apoptosis in human MIAPaCa2 cells assessed as necrotic cells at 1 uM incubated for 12 hrs by annexin V and propidium iodide staining based flow cytometry analysis (reference value: 1.54 %); type: functional
MIA PaCa-2 [2] = assay: Inhibition of colony formation in human MIAPaCa2 cells at 0.5 uM treated for 3 days and supplemented with fresh medium with out compound every 3 days measured after 15 days by crystal violet staining based assay; type: functional, cell-based
[3] = target: T1, L-lactate dehydrogenase A chain (Homo sapiens, UniProt P00338); assay: Inhibition of LDHA in human MIAPaCa2 cells assessed as switch of pyruvate metabolism from lactate production to oxidative phosphorylation by measuring decrease in extracellular acidification rate at 1 to 10 uM incubated for 4 hrs; type: cell-based
[4] = Toxicity in nude mouse xenografted with human MIAPaCa2 cells assessed as reduction in body weight at 10 mg/kg administered once daily for 21 days measured twice a week; type: organism-based; details: in vivo, 504 h
MIA PaCa-2 [5] = assay: Induction of apoptosis in human MIAPaCa2 cells assessed as viable cells at 5 uM incubated for 12 hrs by annexin V and propidium iodide staining based flow cytometry analysis (reference value: 94.85 %); type: functional; details: MIA PaCa-2, 12 h, read-out: Activity
MIA PaCa-2 [6] = assay: Induction of apoptosis in human MIAPaCa2 cells assessed as early apoptotic cells at 5 uM incubated for 12 hrs by annexin V and propidium iodide staining based flow cytometry analysis (reference value: 0.40 %); type: functional
MIA PaCa-2 [7] = assay: Antitumor activity against human MIAPaCa2 cells xenografted in nude mouse assessed as reduction in tumor growth at 10 mg/kg administered once daily for 21 days measured twice a week; type: functional, organism-based
MIA PaCa-2 [8] = assay: Cell cycle arrest in human MIAPaCa2 cells assessed as accumulation at G1 phase at 1 uM incubated for 24 hrs by propidium iodide staining based flow cytometry (reference value: 56.01%); type: functional
MIA PaCa-2 [9] = assay: Antitumor activity against human MIAPaCa2 cells xenografted in mouse assessed as reduction in tumor weight at 10 mg/kg administered once daily for 21 days measured twice a week; type: functional, organism-based
A549 = assay: Antiproliferative activity against human A549 cells assessed as reduction in cell viability at incubated for 72 hrs by MTT assay; type: functional, cell-based; details: A549, 72 h
[10] = target: T1, L-lactate dehydrogenase A chain; assay: Inhibition of LDHA in human MIAPaCa2 cells assessed as switch of pyruvate metabolism from lactate production to oxidative phosphorylation by measuring reduction in lactate formation at 1 to 10 uM incubated for 4 hrs; type: cell-based
MIA PaCa-2 [11] = assay: Cell cycle arrest in human MIAPaCa2 cells assessed as accumulation at G2 phase at 1 uM incubated for 24 hrs by propidium iodide staining based flow cytometry (reference value: 31.00%); type: functional
MIA PaCa-2 [12] = assay: Induction of apoptosis in human MIAPaCa2 cells assessed as viable cells at 10 uM incubated for 12 hrs by annexin V and propidium iodide staining based flow cytometry analysis (reference value: 94.85 %); type: functional; details: MIA PaCa-2, 12 h, read-out: Activity
MIA PaCa-2 [13] = assay: Induction of apoptosis in human MIAPaCa2 cells incubated for 12 hrs by Annexin V-FITC/propidium iodide staining based flow cytometry; type: functional, cell-based
MIA PaCa-2 [14] = assay: Induction of apoptosis in human MIAPaCa2 cells assessed as late apoptotic cells at 1 uM incubated for 12 hrs by annexin V and propidium iodide staining based flow cytometry analysis (reference value: 3.21 %); type: functional
MIA PaCa-2 [15] = assay: Induction of apoptosis in human MIAPaCa2 cells assessed as viable cells at 1 uM incubated for 12 hrs by annexin V and propidium iodide staining based flow cytometry analysis (reference value: 94.85 %); type: functional; details: MIA PaCa-2, 12 h, read-out: Activity
MIA PaCa-2 [16] = assay: Inhibition of colony formation in human MIAPaCa2 cells treated for 3 days and supplemented with fresh medium with out compound every 3 days measured after 15 days by crystal violet staining based assay; type: functional, cell-based
MIA PaCa-2 [17] = assay: Cell cycle arrest in human MIAPaCa2 cells assessed as accumulation at G1 phase at 5 uM incubated for 24 hrs by propidium iodide staining based flow cytometry (reference value: 56.01%); type: functional
MIA PaCa-2 [18] = assay: Inhibition of colony formation in human MIAPaCa2 cells at 1 uM treated for 3 days and supplemented with fresh medium with out compound every 3 days measured after 15 days by crystal violet staining based assay; type: functional
MIA PaCa-2 [19] = assay: Induction of apoptosis in human MIAPaCa2 cells assessed as late apoptotic cells at 5 uM incubated for 12 hrs by annexin V and propidium iodide staining based flow cytometry analysis (reference value: 3.21 %); type: functional
MIA PaCa-2 [20] = assay: Cell cycle arrest in human MIAPaCa2 cells assessed as increase in accumulation at G2 phase incubated for 24 hrs by propidium iodide staining based flow cytometry; type: functional
MIA PaCa-2 [21] = assay: Cell cycle arrest in human MIAPaCa2 cells assessed as accumulation at S phase at 5 uM incubated for 24 hrs by propidium iodide staining based flow cytometry (reference value: 12.99%); type: functional
MIA PaCa-2 [22] = assay: Induction of apoptosis in human MIAPaCa2 cells assessed as late apoptotic cells at 10 uM incubated for 12 hrs by annexin V and propidium iodide staining based flow cytometry analysis (reference value: 3.21 %); type: functional
[23] = target: T1, L-lactate dehydrogenase A chain; assay: Inhibition of recombinant human full-length N-terminal His-tagged LDHA (1 to 332 residues) expressed in Escherichia coli using sodium pyruvate as substrate incubated for 10 mins
MIA PaCa-2 [24] = assay: Induction of apoptosis in human MIAPaCa2 cells assessed as early apoptotic cells at 1 uM incubated for 12 hrs by annexin V and propidium iodide staining based flow cytometry analysis (reference value: 0.40 %); type: functional
[25] = target: T1, L-lactate dehydrogenase A chain; assay: Inhibition of LDHA in human MIAPaCa2 cells assessed as switch of pyruvate metabolism from lactate production to oxidative phosphorylation by measuring increase in oxygen consumption rate at 1 to 10 uM incubated for 4 hrs; type: cell-based
MIA PaCa-2 [26] = assay: Induction of apoptosis in human MIAPaCa2 cells assessed as necrotic cells at 5 uM incubated for 12 hrs by annexin V and propidium iodide staining based flow cytometry analysis (reference value: 1.54 %); type: functional
MIA PaCa-2 [27] = assay: Cell cycle arrest in human MIAPaCa2 cells assessed as accumulation at S phase at 10 uM incubated for 24 hrs by propidium iodide staining based flow cytometry (reference value: 12.99%); type: functional
MIA PaCa-2 [28] = assay: Induction of apoptosis in human MIAPaCa2 cells assessed as early apoptotic cells at 10 uM incubated for 12 hrs by annexin V and propidium iodide staining based flow cytometry analysis (reference value: 0.40 %); type: functional
MIA PaCa-2 [29] = assay: Induction of apoptosis in human MIAPaCa2 cells assessed as necrotic cells at 10 uM incubated for 12 hrs by annexin V and propidium iodide staining based flow cytometry analysis (reference value: 1.54 %); type: functional
MIA PaCa-2 [30] = assay: Cell cycle arrest in human MIAPaCa2 cells assessed as accumulation at G2 phase at 10 uM incubated for 24 hrs by propidium iodide staining based flow cytometry (reference value: 31.00%); type: functional
MIA PaCa-2 [31] = assay: Antiproliferative activity against human MIAPaCa2 cells assessed as reduction in cell viability incubated for 72 hrs by MTT assay; type: functional, cell-based; details: MIA PaCa-2, 72 h
MIA PaCa-2 [32] = assay: Cell cycle arrest in human MIAPaCa2 cells assessed as accumulation at G2 phase at 5 uM incubated for 24 hrs by propidium iodide staining based flow cytometry (reference value: 31.00%); type: functional
MIA PaCa-2 [33] = assay: Cell cycle arrest in human MIAPaCa2 cells assessed as accumulation at S phase at 1 uM incubated for 24 hrs by propidium iodide staining based flow cytometry (reference value: 12.99%); type: functional
MIA PaCa-2 [34] = assay: Cell cycle arrest in human MIAPaCa2 cells assessed as accumulation at G1 phase at 10 uM incubated for 24 hrs by propidium iodide staining based flow cytometry (reference value: 56.01%); type: functional

- inhibition [3]: Active
- IC50 (A549): 7800 nM
- inhibition [10]: Active
- EC50 [23]: 90 nM
- inhibition [25]: Active
- IC50 (MIA PaCa-2 [31]): 2100 nM
Structure (SMILES): O=C(c1ccco1)N1CCN(Cc2cc(=O)c(OCc3ccccc3F)co2)CC1
- Activity (MIA PaCa-2 [1]): 3.23%
- inhibition (MIA PaCa-2 [2]): Active
- Activity [4]: Non-Toxic
- viability at 5 µM (MIA PaCa-2 [5]): 66.6%
- Activity (MIA PaCa-2 [6]): 3.47%
- Activity (MIA PaCa-2 [7]): Active
- Activity (MIA PaCa-2 [8]): 49.19%
- Activity (MIA PaCa-2 [9]): Active
- Activity (MIA PaCa-2 [11]): 38.52%
- viability at 10 µM (MIA PaCa-2 [12]): 55.1%
- Activity (MIA PaCa-2 [13]): Dose-dependent effect
- Activity (MIA PaCa-2 [14]): 5.79%
- viability at 1 µM (MIA PaCa-2 [15]): 89.8%
- inhibition (MIA PaCa-2 [16]): Dose-dependent effect
- Activity (MIA PaCa-2 [17]): 44.51%
- inhibition at 1 µM (MIA PaCa-2 [18]): 100%
- Activity (MIA PaCa-2 [19]): 19.86%
- Activity (MIA PaCa-2 [20]): Dose-dependent effect
- Activity (MIA PaCa-2 [21]): 13.37%
- Activity (MIA PaCa-2 [22]): 27.68%
- Activity (MIA PaCa-2 [24]): 1.14%
- Activity (MIA PaCa-2 [26]): 10.1%
- Activity (MIA PaCa-2 [27]): 3.8%
- Activity (MIA PaCa-2 [28]): 3.79%
- Activity (MIA PaCa-2 [29]): 13.38%
- Activity (MIA PaCa-2 [30]): 59.99%
- Activity (MIA PaCa-2 [32]): 42.12%
- Activity (MIA PaCa-2 [33]): 12.29%
- Activity (MIA PaCa-2 [34]): 36.21%
